Results on eight compounds are retold here after ChEMBL document CHEMBL1149918, “Novel 1,5-benzodiazepindione gastrin/CCKB antagonists” (Bioorg Med Chem Lett, 1997).

The structures appear in SMILES notation.

Data set [1] deals with Rattus norvegicus. In words: Tested for its ability to inhibit acid secretion in the pentagastrin stimulated gastric fistula rat model by intravenous dose of 0.1 mg/kg. It counts as functional. The following applies: Stomach.
The target in data set [2] is T1, Cholecystokinin receptor type A (Cavia porcellus) (UniProt Q63931).
T1 sequence (whole entry): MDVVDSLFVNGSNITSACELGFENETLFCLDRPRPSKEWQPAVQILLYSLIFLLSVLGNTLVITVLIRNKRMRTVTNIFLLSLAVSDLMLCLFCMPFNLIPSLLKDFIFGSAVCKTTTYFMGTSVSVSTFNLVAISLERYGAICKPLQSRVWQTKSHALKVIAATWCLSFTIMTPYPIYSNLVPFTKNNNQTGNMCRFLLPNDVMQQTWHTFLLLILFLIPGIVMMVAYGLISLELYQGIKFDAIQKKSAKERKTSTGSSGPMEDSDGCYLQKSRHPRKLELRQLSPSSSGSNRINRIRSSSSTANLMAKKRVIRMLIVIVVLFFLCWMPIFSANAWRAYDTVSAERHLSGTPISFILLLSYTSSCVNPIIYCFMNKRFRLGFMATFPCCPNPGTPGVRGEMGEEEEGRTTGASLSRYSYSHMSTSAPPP
As to the kind of experiment: Tested for selectivity toward Cholecystokinin type A receptor by guinea -pig isolated ileum longitudinal muscle-myenteric plexus (GPI) assay. It counts as tissue-based.

Data set [3] has as its target T2, Gastrin/cholecystokinin type B receptor (Rattus norvegicus) (UniProt P30553).
T2 sequence (whole entry): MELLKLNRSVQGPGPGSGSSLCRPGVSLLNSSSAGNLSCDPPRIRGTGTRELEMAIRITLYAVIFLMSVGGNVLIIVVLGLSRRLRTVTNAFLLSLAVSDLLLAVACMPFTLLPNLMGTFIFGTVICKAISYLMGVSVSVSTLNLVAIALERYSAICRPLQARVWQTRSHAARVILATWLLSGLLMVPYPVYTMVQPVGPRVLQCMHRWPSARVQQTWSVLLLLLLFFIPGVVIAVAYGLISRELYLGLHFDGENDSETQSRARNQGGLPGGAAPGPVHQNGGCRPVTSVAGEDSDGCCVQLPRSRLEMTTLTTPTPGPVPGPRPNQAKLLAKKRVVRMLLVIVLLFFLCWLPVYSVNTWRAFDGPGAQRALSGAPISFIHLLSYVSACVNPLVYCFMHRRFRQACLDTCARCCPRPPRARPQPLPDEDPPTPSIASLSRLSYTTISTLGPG
As to the kind of experiment: Tested for selectivity toward gastrin receptor by the ability to block pentagastrin stimulated acid secretion from isolated rat gastric mucosa (RGM). The class given is tissue-based.

For data set [4], the system named is Rattus norvegicus. In words: Tested for its ability to inhibit acid secretion in the pentagastrin stimulated gastric fistula rat model by intra gastric dose of 1 mg/kg. It counts as functional. The following applies: Stomach.
Data set [5] can be described thus: Oral bioavailability in rat. It counts as ADME, organism-based. The settings on record: in vivo.
Data set [6] has as its target T3, Gastrin/cholecystokinin type B receptor (Homo sapiens, UniProt P32239).
T3 sequence (P32239 whole entry): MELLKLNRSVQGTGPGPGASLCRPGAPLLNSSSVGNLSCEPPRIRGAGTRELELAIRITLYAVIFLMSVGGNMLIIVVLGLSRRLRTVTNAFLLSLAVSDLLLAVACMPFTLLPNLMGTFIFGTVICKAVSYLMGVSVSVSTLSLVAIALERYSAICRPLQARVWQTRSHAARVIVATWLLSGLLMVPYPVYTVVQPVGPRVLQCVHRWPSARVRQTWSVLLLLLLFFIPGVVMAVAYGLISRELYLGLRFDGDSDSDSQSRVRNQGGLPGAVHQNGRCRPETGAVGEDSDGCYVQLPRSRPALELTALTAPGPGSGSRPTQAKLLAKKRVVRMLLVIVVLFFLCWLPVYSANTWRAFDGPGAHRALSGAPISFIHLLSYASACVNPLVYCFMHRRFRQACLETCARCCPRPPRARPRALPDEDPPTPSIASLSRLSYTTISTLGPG
As to the kind of experiment: Tested for its selectivity against human Cholecystokinin type B receptor isolated from a human temporal cortex cDNA library and stably transfected into a HeLa cell line. (n=1). It counts as cell-based.

Data set [7] concerns Rattus norvegicus. In words: Tested for its ability to inhibit acid secretion in the pentagastrin stimulated gastric fistula rat model by intra gastric dose of 0.3 mg/kg. The settings on record: Stomach. The class given is functional.
Data set [8] relates to Rattus norvegicus. In words: Tested for its ability to inhibit acid secretion in the pentagastrin stimulated gastric fistula rat model by intravenous dose of 0.3 mg/kg. It counts as functional. The settings on record: Stomach.
Data set [9] is described as follows: Compound was tested for plasma clearance in rat. It counts as ADME, organism-based. The settings on record: read-out: Clp.
The target in data set [10] is T4, Cholecystokinin receptor type A (Homo sapiens, UniProt P32238).
T4 sequence (P32238 whole entry): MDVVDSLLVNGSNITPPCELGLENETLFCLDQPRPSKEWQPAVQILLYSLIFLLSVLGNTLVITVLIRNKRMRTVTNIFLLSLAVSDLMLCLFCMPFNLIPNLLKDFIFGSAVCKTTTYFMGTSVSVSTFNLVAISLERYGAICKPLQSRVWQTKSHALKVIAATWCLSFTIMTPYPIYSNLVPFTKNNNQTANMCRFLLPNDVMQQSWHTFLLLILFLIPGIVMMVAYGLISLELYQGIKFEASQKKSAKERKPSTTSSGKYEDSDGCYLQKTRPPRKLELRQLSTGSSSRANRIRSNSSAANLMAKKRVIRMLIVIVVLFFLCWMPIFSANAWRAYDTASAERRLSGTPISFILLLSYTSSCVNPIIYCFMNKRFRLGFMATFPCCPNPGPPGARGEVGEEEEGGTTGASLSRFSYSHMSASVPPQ
In words: Tested for its selectivity against human Cholecystokinin type A receptor isolated from a human gallbladder cDNA library and stably transfected into a COSM6 cell line; (n=1). It counts as cell-based.

In data set [11] the test system is Rattus norvegicus. As to the kind of experiment: Compound was tested for its ability to inhibit acid secretion in the pentagastrin stimulated gastric fistula rat model by intra gastric dose of 1 mg/kg. The class given is functional. The following applies: Stomach.
The subject of data set [12] is Rattus norvegicus. As to the kind of experiment: Compound was tested for its ability to inhibit acid secretion in the pentagastrin stimulated gastric fistula rat model by intravenous dose of 1 mg/kg. It counts as functional. The following applies: Stomach.
Data set [13] concerns the target T4, Cholecystokinin receptor type A. In words: Tested for its selectivity against human Cholecystokinin type A receptor isolated from a human gallbladder cDNA library and stably transfected into a COSM6 cell line (n=1). The class given is cell-based.
In data set [14] the target is T2, Gastrin/cholecystokinin type B receptor (Rattus norvegicus). The following applies: Gastric mucosa.

In the case of `O=C(Nc1cccc(C2N=NN=N2)c1)NC1C(=O)N(CC(=O)N2CCCC2)c2ccccc2N(c2ccccc2)C1=O` (stereo unspecified), at 0.1 mg/kg the inhibition in vivo in data set [1] was 79%. For the same compound, the negative-log KB (pKB) in [2] was found to be 7.4; in data set [3], 10.3. Besides, the inhibition in vivo at 1 mg/kg in [4] worked out at 45%.
For the compound `O=C(Nc1ccccc1)NC1C(=O)N(CC(=O)N2CCCC2)c2ccccc2N(c2ccccc2)C1=O` (stereo unspecified), the figures for the pKB in data set [2] and in [3] were 7.3 and 8.5, respectively.
In the case of `O=C(Nc1ccc(F)cc1)N[C@H]1C(=O)N(CC(=O)N2CCCC2)c2ccccc2N(C2CCCCC2)C1=O`, the bioavailability in data set [5] turned out to be 23%. Besides, the Ki in data set [6] was 2.51 nM; in data set [10] it was 79.4 nM. In addition, the inhibition in vivo at 0.3 mg/kg in [7] was found to be 67%; in data set [8], 60%. The clearance in data set [9] came out at 36 mL/min/kg.
Turning to `O=C(Nc1ccc(F)cc1)NC1C(=O)N(CC(=O)N2CCCC2)c2ccccc2N(c2ccccc2F)C1=O` (stereo unspecified), the bioavailability in [5] is 68%. In addition, the pKB in data set [2] is 6.8; in data set [3], 8.6. Also, the inhibition in vivo at 1 mg/kg was 73% in data set [11] and 86% in data set [12]. Further, the figures for the Ki in data set [6] and in data set [13] were 12.6 nM and 50.1 nM, respectively. In addition, the clearance in data set [9] is 15 mL/min/kg.
`O=C(Nc1ccc(F)cc1)NC1C(=O)N(CC(=O)N2CC3CCC(CC3)C2)c2ccccc2N(c2ccccc2F)C1=O` (racemic) gave a bioavailability in data set [5] of 7%. The Ki in data set [6] was 0.398 nM; in [10], 10 nM. For the same compound, the clearance in [9] was found to be 28 mL/min/kg.
Regarding `O=C(Nc1ccc(F)cc1)N[C@H]1C(=O)N(CC(=O)N2CCCC2)c2ccccc2N(C2CCCCCC2)C1=O`, the bioavailability in data set [5] amounted to 10%. For the same compound, the Ki in data set [6] is 1.58 nM; in data set [10], 79.4 nM.
As for `O=C(Nc1cccc(C(=O)O)c1)NC1C(=O)N(CC(=O)N2CCCC2)c2ccccc2N(c2ccccc2)C1=O` (stereo unspecified), the figures for the pKB in [2] and in data set [3] were 5.7 and 8.6, respectively.
As to `Cc1cccc(NC(=O)N[C@@H]2N=C(c3ccccc3)c3ccccc3N(C)C2=O)c1`, the pKB in data set [2] worked out at 7.7; in data set [14], 7.6.
